Laboratory results as given in PubChem BioAssay (NCI).
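Following 48 hours of exposure in 96-well plates, responses at five concentrations were used to interpolate endpoints linearly. At the GI50, growth is halved. The concentration for full growth arrest is given as TGI.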

Experiments:
Test in all cases: NCI tumour cell line growth inhibition, 48 h
[1] = test system: SK-MEL-5 melanoma
[2] = test system: UACC-257 melanoma
[3] = test system: ACHN renal
[4] = test system: NCI-H226 lung
[5] = test system: TK-10 renal
[6] = test system: CCRF-CEM leukemia
[7] = test system: BT-549 breast
[8] = test system: SF-295 CNS
[9] = test system: OVCAR-3 ovarian
[10] = test system: SR leukemia
[11] = test system: U251 CNS
[12] = test system: M14 melanoma
[13] = test system: SF-268 CNS
[14] = test system: UO-31 renal
[15] = test system: K-562 leukemia
[16] = test system: KM12 colon
[17] = test system: NCI-H460 lung
[18] = test system: T-47D breast
[19] = test system: DU-145 prostate
[20] = test system: MCF7 breast
[21] = test system: RPMI-8226 leukemia
[22] = test system: OVCAR-4 ovarian
[23] = test system: MALME-3M melanoma
[24] = test system: HCC-2998 colon
[25] = test system: OVCAR-8 ovarian
[26] = test system: HCT-116 colon
[27] = test system: SNB-75 CNS
[28] = test system: HS 578T breast
[29] = test system: CAKI-1 renal
[30] = test system: EKVX NSCLC
[31] = test system: LOX IMVI melanoma
[32] = test system: MOLT-4 leukemia
[33] = test system: 786-0 renal
[34] = test system: SNB-19 CNS
[35] = test system: SK-MEL-2 melanoma
[36] = test system: SW-620 colon
[37] = test system: NCI-H23 lung
[38] = test system: HL-60(TB) leukemia
[39] = test system: COLO 205 colon
[40] = test system: NCI/ADR-RES ovarian
[41] = test system: HCT-15 colon
[42] = test system: HT29 colon
[43] = test system: SK-OV-3 ovarian
[44] = test system: IGROV1 ovarian
[45] = test system: SF-539 CNS
[46] = test system: NCI-H522 lung
[47] = test system: OVCAR-5 ovarian
[48] = test system: SN12C renal
[49] = test system: MDA-MB-231 breast
[50] = test system: MDA-MB-435
[51] = test system: UACC-62 melanoma
[52] = test system: HOP-92 NSCLC
[53] = test system: A549 NSCLC
[54] = test system: SK-MEL-28 melanoma
[55] = test system: PC-3 prostate
[56] = test system: A498 renal
[57] = test system: HOP-62 NSCLC
[58] = test system: RXF 393 renal

Compound CCC(c1ccccc1)c1noc(CCN(CC)CC)n1 (stereo unspecified) has a GI50 [1] of 31.1 µM, a TGI [1] of over 100 µM and a GI50 [2] of over 51.2 µM. It also gave a TGI [2] of over 100 µM, a GI50 [3] of 16.1 µM and a TGI [3] of 31.3 µM. For the same compound, the GI50 [4] was 23.8 µM, the TGI [4] was 70.9 µM and the GI50 [5] was 42.8 µM. It also gave a TGI [5] of over 100 µM, a GI50 [6] of 28.5 µM and a TGI [6] of over 86.3 µM. The GI50 [7] was 39.6 µM, the TGI [7] was over 100 µM and the GI50 [8] was over 56.9 µM. It also gave a TGI [8] of over 100 µM, a GI50 [9] of 25.3 µM and a TGI [9] of over 56.2 µM. For the same compound, the GI50 [10] was 37.5 µM, the TGI [10] was over 100 µM and the GI50 [11] was 29.5 µM. The TGI [11] was over 100 µM, the GI50 [12] was 28.8 µM and the TGI [12] was over 100 µM. For the same compound, the GI50 [13] was 35.1 µM, the TGI [13] was over 100 µM and the GI50 [14] was 32.2 µM. It also gave a TGI [14] of over 100 µM, a GI50 [15] of 25.8 µM and a TGI [15] of over 100 µM. For the same compound, the GI50 [16] was 22.8 µM, the TGI [16] was over 56.1 µM and the GI50 [17] was over 52.3 µM. The TGI [17] was over 87.8 µM, the GI50 [18] was 13.1 µM and the TGI [18] was 76.2 µM. It also gave a GI50 [19] of 22.7 µM, a TGI [19] of over 64.3 µM and a GI50 [20] of 8.98 µM. For the same compound, the TGI [20] was 76.2 µM, the GI50 [21] was 13.2 µM and the TGI [21] was over 100 µM. It also gave a GI50 [22] of 16.4 µM, a TGI [22] of 40.7 µM and a GI50 [23] of 30.2 µM. It also gave a TGI [23] of over 100 µM, a GI50 [24] of 50.1 µM and a TGI [24] of over 100 µM. For the same compound, the GI50 [25] was 32.5 µM, the TGI [25] was over 100 µM and the GI50 [26] was 18.5 µM. The TGI [26] was 43.4 µM, the GI50 [27] was 21.7 µM and the TGI [27] was over 100 µM. It also gave a GI50 [28] of over 40.7 µM, a TGI [28] of over 72.8 µM and a GI50 [29] of 2.18 µM. For the same compound, the TGI [29] was 6.39 µM, the GI50 [30] was over 47 µM and the TGI [30] was over 91.3 µM. For the same compound, the GI50 [31] was 34.1 µM, the TGI [31] was over 60.3 µM and the GI50 [32] was 40.9 µM. It also gave a TGI [32] of over 100 µM, a GI50 [33] of 34.4 µM and a TGI [33] of over 100 µM. It also gave a GI50 [34] of over 78.4 µM, a TGI [34] of over 100 µM and a GI50 [35] of 24.7 µM. It also gave a TGI [35] of 67.7 µM, a GI50 [36] of 21 µM and a TGI [36] of over 68.1 µM. The GI50 [37] was 63.3 µM, the TGI [37] was over 100 µM and the GI50 [38] was 18.1 µM. For the same compound, the TGI [38] was 54.5 µM, the GI50 [39] was 17.5 µM and the TGI [39] was 34.5 µM. The GI50 [40] was 39.1 µM, the TGI [40] was over 100 µM and the GI50 [41] was 19.2 µM. It also gave a TGI [41] of over 62.3 µM, a GI50 [42] of 27.2 µM and a TGI [42] of 81.3 µM. For the same compound, the GI50 [43] was over 100 µM, the TGI [43] was over 100 µM and the GI50 [44] was over 48.5 µM. The TGI [44] was over 92.1 µM, the GI50 [45] was 23.2 µM and the TGI [45] was 71.1 µM. The GI50 [46] was 2.98 µM, the TGI [46] was 9.09 µM and the GI50 [47] was 17.1 µM. For the same compound, the TGI [47] was 35.6 µM, the GI50 [48] was 27.1 µM and the TGI [48] was over 94.8 µM. The GI50 [49] was 26.4 µM, the TGI [49] was over 91.2 µM and the GI50 [50] was 23.8 µM. The TGI [50] was over 78.8 µM, the GI50 [51] was 43.2 µM and the TGI [51] was over 100 µM. For the same compound, the GI50 [52] was 7.99 µM, the TGI [52] was 49.6 µM and the GI50 [53] was 42.1 µM. It also gave a TGI [53] of over 100 µM, a GI50 [54] of 26.7 µM and a TGI [54] of over 73.2 µM. It also gave a GI50 [55] of 49.6 µM, a TGI [55] of over 100 µM and a GI50 [56] of over 81.9 µM. It also gave a TGI [56] of over 100 µM, a GI50 [57] of 42.5 µM and a TGI [57] of over 100 µM. The GI50 [58] was 14.8 µM and the TGI [58] was 29 µM.
